Laboratory results as given in paper PMC9525908, “α-Crystallin chaperone mimetic drugs inhibit lens γ-crystallin aggregation: Potential role for cataract prevention” (The Journal of Biological Chemistry, 2022).
Entries after “also recorded” stand apart in the source; their conditions may differ.

Experiments:
[1] = test system: Total mouse gamma crystallins; assay: H2O2 oxidation-mediated aggregation of total mouse γ-crystallins, 600 nm; assay type: biochemical; conditions: 2.5 mg/ml, H2O2, 18 h at 37 °C
Experimental: In preparation for possible in vivo testing, the drugs were tested against native mouse γ-crystallins. Total gamma crystallins (2.5 mg/ml) were incubated with H2O2 for 18 h at 37 °C with increasing concentrations of drugs X, C, and G, or a combination thereof. Oxidative stress–mediated aggregation at 600 nm was suppressed by drug C but poorly by drug G (Fig. S4A, left panel). […] The baseline increase at 50 μM could reflect a destabilizing effect of the drugs because of a pro-oxidative mechanism followed by stabilizing chaperone-like effect. […] There is 52.6% more aggregation of OPJ-MγS in comparison to WT-MγS under same conditions of thermal stress. […] Fluorescence microscopy using Nile Red provides a pictorial rendition of the type and size of aggregates formed on heating WT-MγS and OPJ-MγS, with and without drugs (Fig. S4F). […] The bis-ANS fluorescence inhibition pattern is again in complete agreement with the previous results for HγD (Fig. 2F). […] As for the reproducibility of these findings, see Fig. S7 and the warning note under Rigor and reproducibility section.

HγD-ox [2] = target: T1, HγD-ox (Homo sapiens, UniProt P07320); assay: Turbidity (600 nm) of oxidized HγD heated 10 min at 72 °C; assay type: biochemical; conditions: 1.4 mg/ml with DTPA, 100 and 500 μM bis-ANS, 100 μM drug C, 500 μM drug M
T1 construct: made in house; host or cells: Escherichia coli BL21(DE3) pLysS, pET3d vector
T1 sequence (P07320 1-174): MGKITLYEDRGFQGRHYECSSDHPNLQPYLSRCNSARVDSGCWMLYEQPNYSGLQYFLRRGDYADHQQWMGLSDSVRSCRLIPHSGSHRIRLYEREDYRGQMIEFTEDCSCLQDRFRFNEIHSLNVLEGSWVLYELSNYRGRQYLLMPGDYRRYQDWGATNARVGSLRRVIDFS
Description: (§1) In postsubmission experiments, we attempted to find mechanistic clues relevant to the use of an H2O2 oxidation step prior to the thermal stress used during the initial drug screen. For this reason, we did a comparative study of oxidized (HγD-ox) versus native HγD (HyD-nat), hypothesizing that bis-ANS would both act like the drugs and provide information on the role of exposed hydrophobicity ([40]). HγD was oxidized in diethylenetriaminepentaacetic acid […] phosphate buffer to facilitate hydroxyl radical formation and protein damage, followed by dialysis against DTPA-treated buffer to eliminate the known proaggregating effects of divalent metals ([32]) in the subsequent steps. […] Overall protective effects were more pronounced for the oxidized than nonoxidized form of HγD. […] In the hope to obtain clues on the impact of bis-ANS, drugs C, G, and M on protein aggregation status, native PAGE was performed (Fig. 3G). Polymers greater than 250 kD are present in unheated HγD-nat but only the size of 75 to 100 kD in HγD-ox. […] Other techniques will be needed to assess the relationship between drugs and aggregate size.

HγD = target: T2, HγD (Homo sapiens, UniProt P07320); conditions: 600 μM drug C, tested by an outside laboratory; cited from earlier work
T2 construct: made in house; host or cells: E. coli BL21(DE3) pLysS, pET3d vector
T2 sequence (P07320 1-174): T1 sequence (P07320 1-174)

WT-HγD crystallin = target: T3, WT-HγD crystallin (Homo sapiens, UniProt P07320); assay: Thermal unfolding of WT-HγD by fluorescence ratio (Tm); assay type: biochemical; conditions: for Tm: 10 μM WT-HγD, 100 μM drug, fluorescence ratio 360/330 nm, control 81 °C; for Tm of HγD-nat: 100 μM agent, 360/320 nm ratio, 78 ± 0.1 °C without agent; for Elevation of Tm of HγD: versus control 81 °C
T3 construct: made in house; host or cells: E. coli BL21(DE3) pLysS, pET3d vector
T3 sequence (P07320 1-174): T1 sequence (P07320 1-174)
Description: His-tag free recombinant HγD crystallin produced in Escherichia coli using pET3d or pET17b expression vector was used to investigate the effects of compounds C and G against thermal-induced unfolding and aggregate formation. The antiaggregation potency of drug C and G was reconfirmed by dynamic light scattering (DLS) (Fig. 2A). […] There is a decrease in the size of aggregates from as high as 7261 nm without drugs to 30.5 nm with drug C and 84.9 nm with drug G. Drug M has moderate activity with mean aggregate size of 569 nm radius (Table S2). […] Furthermore, we investigated whether these drugs can prevent thermal unfolding of HγD (Fig. 2C). […] It is the temperature at which 50% of the protein unfolds.
(§2) Thermal denaturation study was monitored using fluorescence spectroscopy. Protein solutions (10 μM) in the presence and absence of drugs or bis-ANS (100 μM) were heated continuously from 30 to 95 °C, and the fluorescence data were collected every 5 °C after 1 min equilibration at the given temperature. Unfolding data were fit to Greene and Pace’s two-state model ([82]) using GraphPad Prism software (GraphPad Software, Inc).

HγD-ox [3] = target: T1, HγD-ox; assay: Thermal unfolding (Tm) of oxidized HγD; assay type: biochemical; conditions: 100 μM agent, 360/320 nm ratio; 68 ± 0.07 °C without agent
Description: as §1, §2

15N-labeled HyD = target: T4, 15N-labeled HyD (Homo sapiens, UniProt P07320); assay: NMR HSQC of 15N-labeled HyD with drug C; assay type: binding; conditions: 100 μM protein, 600 μM drug C, 5% DMSO
T4 sequence (P07320 1-174): T1 sequence (P07320 1-174)

SMILES	Oxidative stress–mediated aggregation at 600 nm [1]	Effect on aggregation/turbidity of HγD-ox (HγD-ox [2])	Effect on heat-mediated aggregation of HγD (HγD)	Tm (WT-HγD crystallin)	Tm of HγD-nat (WT-HγD crystallin)	Elevation of Tm of HγD (WT-HγD crystallin)	Tm of HγD-ox (HγD-ox [3])	HSQC spectra, drug-treated versus control sample (15N-labeled HyD)
Cc1cc(C(C#N)c2ccc(Cl)cc2)c(Cl)cc1NC(=O)c1cc(I)cc(I)c1O (centres unmarked) [drug C, Closantel]	suppressed	strongly suppressed	worsening	85 °C	increased all Tm values to the maximum value	4 °C	increased all Tm values to the maximum value	no significant differences
CC(C)=CCC[C@]1(C)C=Cc2c(O)c3c(c(CC=C(C)C)c2O1)O[C@]12C(=C[C@@H]4C[C@H]1C(C)(C)O[C@@]2(C/C=C(/C)C(=O)O)C4=O)C3=O [drug G, Gambogic acid]	poorly	–	–	85 °C	increased all Tm values to the maximum value	4 °C	increased all Tm values to the maximum value	–
O=C(O)CCCCCCCCCCCC[C@@H]1C=CCC1 [drug M, Chaulmoogric acid]	–	strongly suppressed; also recorded: protected oxidized HγD	–	–	–	–	–	–
